The record followed here is ChEMBL document CHEMBL5532661, “Discovery of a Novel Glucagon-like Peptide-1 (GLP-1) Analogue from Bullfrog and Investigation of Its Potential for Designing GLP-1-Based Multiagonists” (J Med Chem, 2024).

What all share (type): functional, cell-based
The target in test [1] is T1, Glucagon-like peptide 1 receptor (Homo sapiens, UniProt P43220). The experiment in a line: Agonist activity at human GLP-1 receptor expressed in HEK293 cells assessed as cAMP level measured after 60 mins by HTRF based assay. (Cyclic AMP is a second messenger, typically raised through Gs and lowered through Gi signalling.)
T1 sequence (P43220 whole entry): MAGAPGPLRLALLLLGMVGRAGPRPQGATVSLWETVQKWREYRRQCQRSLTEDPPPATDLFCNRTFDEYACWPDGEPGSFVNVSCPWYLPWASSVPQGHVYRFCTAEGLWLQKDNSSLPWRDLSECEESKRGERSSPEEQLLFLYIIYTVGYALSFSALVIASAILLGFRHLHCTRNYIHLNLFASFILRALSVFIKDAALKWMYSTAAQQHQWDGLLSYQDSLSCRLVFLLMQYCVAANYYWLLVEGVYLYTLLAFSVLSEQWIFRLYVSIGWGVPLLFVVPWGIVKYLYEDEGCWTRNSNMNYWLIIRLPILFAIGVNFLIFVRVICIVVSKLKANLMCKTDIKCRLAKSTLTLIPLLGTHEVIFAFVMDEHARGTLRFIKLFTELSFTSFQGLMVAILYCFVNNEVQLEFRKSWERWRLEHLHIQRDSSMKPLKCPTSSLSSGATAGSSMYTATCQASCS
Test [2] deals with T1, Glucagon-like peptide 1 receptor. The experiment in a line: Agonist activity at human GLP-1 receptor expressed in HEK293 cells assessed as cAMP level by measuring relative percent (GLP-1 EC50/compound EC50) measured after 60 mins by HTRF based assay relative to GLP-1.
In test [3] the target is T2, Glucagon receptor (Homo sapiens, UniProt P47871). The experiment in a line: Agonist activity at human GCGR expressed in HEK293 cells assessed as cAMP level measured after 60 mins by HTRF based assay.
T2 sequence (P47871 whole entry): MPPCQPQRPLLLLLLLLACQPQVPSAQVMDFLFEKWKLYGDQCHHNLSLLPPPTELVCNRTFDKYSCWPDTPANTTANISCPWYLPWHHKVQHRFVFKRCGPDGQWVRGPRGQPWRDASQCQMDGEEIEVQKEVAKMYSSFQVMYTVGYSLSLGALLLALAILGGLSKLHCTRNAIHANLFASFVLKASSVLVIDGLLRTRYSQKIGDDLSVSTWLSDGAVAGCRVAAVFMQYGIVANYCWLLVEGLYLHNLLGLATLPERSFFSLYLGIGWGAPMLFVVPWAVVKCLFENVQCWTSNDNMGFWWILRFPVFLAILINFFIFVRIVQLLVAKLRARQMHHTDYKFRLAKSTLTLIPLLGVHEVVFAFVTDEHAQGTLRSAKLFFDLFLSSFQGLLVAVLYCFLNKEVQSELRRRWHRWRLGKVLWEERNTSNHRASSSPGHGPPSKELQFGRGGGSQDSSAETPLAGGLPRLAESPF
Test [4] addresses T2, Glucagon receptor. The experiment in a line: Agonist activity at human GCGR expressed in HEK293 cells assessed as cAMP level by measuring relative percent (glucagon EC50/compound EC50) measured after 60 mins by HTRF based assay relative to glucagon.
The target of test [5] is T3, Gastric inhibitory polypeptide receptor (Homo sapiens, UniProt P48546).
T3 sequence (P48546 whole entry): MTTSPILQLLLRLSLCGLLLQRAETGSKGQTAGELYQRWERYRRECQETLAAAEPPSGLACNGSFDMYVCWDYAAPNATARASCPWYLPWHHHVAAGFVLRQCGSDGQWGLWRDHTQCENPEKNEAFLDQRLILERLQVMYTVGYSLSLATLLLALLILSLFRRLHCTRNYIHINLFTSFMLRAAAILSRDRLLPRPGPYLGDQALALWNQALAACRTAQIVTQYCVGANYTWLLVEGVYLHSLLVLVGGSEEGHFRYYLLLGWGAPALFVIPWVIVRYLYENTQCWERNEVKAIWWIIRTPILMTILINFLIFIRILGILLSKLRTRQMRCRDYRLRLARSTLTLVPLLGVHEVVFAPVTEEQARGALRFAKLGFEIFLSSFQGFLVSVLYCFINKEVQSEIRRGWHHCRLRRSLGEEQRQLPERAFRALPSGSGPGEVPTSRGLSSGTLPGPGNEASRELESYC
Kind of test: Agonist activity at human GIPR receptor expressed in HEK293 cells assessed as cAMP level measured after 60 mins by HTRF based assay.

The target of test [6] is T4, Gastric inhibitory polypeptide receptor (Homo sapiens) (UniProt P48546).
T4 sequence (whole entry): T3 sequence (P48546 whole entry)
Kind of test: Agonist activity at human GIPR receptor expressed in HEK293 cells assessed as cAMP level by measuring relative percent (GIP EC50/compound EC50) measured after 60 mins by HTRF based assay relative to GIP.

pEC50: −log10 of the molar value. Numbered stars: 1 amine (or outer) side, 2 acyl side, 3 side chain; on linkers, the order of the positions; unused ones are H or OH. Square brackets hold non-standard residues; d marks the D form. Side chains are listed from the residue outwards. Peptide text beside a SMILES is read from it. * marks the point of attachment. C20 diacid = O=C(O)CCCCCCCCCCCCCCCCCCC(=O)*; C18 diacid = O=C(O)CCCCCCCCCCCCCCCCC(=O)*; γGlu = O=C(O)[C@H](CCC(=O)[*:2])N[*:1]; AEEA = NCCOCCOCC(=O)O; Aib = CC(C)(N)C(=O)O

On to `CC[C@H](C)[C@H](NC(=O)[C@H](CCCCNC(=O)COCCOCCNC(=O)COCCOCCNC(=O)CC[C@H](NC(=O)CCCCCCCCCCCCCCCCC(=O)O)C(=O)O)NC(=O)[C@H](CCC(=O)O)NC(=O)[C@H](CCSC)NC(=O)[C@H](C)NC(=O)[C@H](CCCNC(=N)N)NC(=O)[C@H](CO)NC(=O)[C@H](CC(C)C)NC(=O)[C@H](CC(=O)O)NC(=O)[C@H](CO)NC(=O)[C@@H](NC(=O)[C@H](Cc1ccccc1)NC(=O)[C@@H](NC(=O)CNC(=O)[C@H](CCC(N)=O)NC(=O)C(C)(C)NC(=O)[C@@H](N)Cc1c[nH]cn1)[C@@H](C)O)[C@@H](C)O)C(=O)N[C@@H](C)C(=O)N[C@H](C(=O)N[C@@H](CCCNC(=N)N)C(=O)N[C@@H](CC(C)C)C(=O)N[C@@H](Cc1ccccc1)C(=O)N[C@H](C(=O)N[C@@H](CCC(=O)O)C(=O)N[C@@H](Cc1c[nH]c2ccccc12)C(=O)N[C@@H](CC(C)C)C(=O)N[C@H](C(=O)N[C@@H](CCC(=O)O)C(=O)NCC(=O)NCC(=O)N1CCC[C@H]1C(=O)N[C@@H](CO)C(=O)N[C@@H](CO)C(=O)NCC(=O)N[C@@H](C)C(=O)N1CCC[C@H]1C(=O)N1CCC[C@H]1C(=O)N1CCC[C@H]1C(=O)N[C@@H](CO)C(N)=O)[C@@H](C)CC)[C@@H](C)CC)C(C)C` (H-H[Aib]QGTFTSDLSRAMEK([AEEA-AEEA-γGlu-C18 diacid])IAVRLFIEWLIEGGPSSGAPPPS-NH2), for which the pEC50 in test [1] was 10.52; in test [3], 8.59; in test [5], 9.00. In addition, the Activity in test [2] (filed as agonist) turned out to be 177%; in test [4], 4%; in test [6] it was 3%.
On to `CC[C@H](C)[C@H](NC(=O)[C@H](CCCCNC(=O)COCCOCCNC(=O)COCCOCCNC(=O)CC[C@H](NC(=O)CCCCCCCCCCCCCCCCCCC(=O)O)C(=O)O)NC(=O)[C@H](CCC(=O)O)NC(=O)[C@H](CCSC)NC(=O)[C@H](C)NC(=O)[C@H](CCCNC(=N)N)NC(=O)[C@H](CO)NC(=O)[C@H](CCSC)NC(=O)[C@H](CC(=O)O)NC(=O)[C@H](CO)NC(=O)[C@@H](NC(=O)[C@H](Cc1ccccc1)NC(=O)[C@@H](NC(=O)CNC(=O)[C@H](CCC(N)=O)NC(=O)C(C)(C)NC(=O)[C@@H](N)Cc1c[nH]cn1)[C@@H](C)O)[C@@H](C)O)C(=O)N[C@@H](C)C(=O)N[C@H](C(=O)N[C@@H](CCCNC(=N)N)C(=O)N[C@@H](CC(C)C)C(=O)N[C@@H](Cc1ccccc1)C(=O)N[C@H](C(=O)N[C@@H](CC(=O)O)C(=O)N[C@@H](Cc1c[nH]c2ccccc12)C(=O)N[C@@H](CC(C)C)C(=O)N[C@H](C(=O)N[C@@H](CCC(=O)O)C(=O)NCC(=O)NCC(=O)N1CCC[C@H]1C(=O)N[C@@H](CO)C(=O)N[C@@H](CO)C(=O)NCC(=O)N[C@@H](C)C(=O)N1CCC[C@H]1C(=O)N1CCC[C@H]1C(=O)N1CCC[C@H]1C(=O)N[C@@H](CO)C(N)=O)[C@@H](C)CC)C(C)C)C(C)C` (H-H[Aib]QGTFTSDMSRAMEK([AEEA-AEEA-γGlu-C20 diacid])IAVRLFVDWLIEGGPSSGAPPPS-NH2), for which the pEC50 was 10.70 in test [1], 9.10 in test [3] and 9.05 in test [5]. Moreover, the figures for the Activity in test [2] (filed as agonist), in test [4] and in test [6] were 265%, 12% and 3%, respectively.
`CC[C@H](C)[C@H](NC(=O)[C@H](CCCCNC(=O)COCCOCCNC(=O)COCCOCCNC(=O)CC[C@H](NC(=O)CCCCCCCCCCCCCCCCC(=O)O)C(=O)O)NC(=O)[C@H](CCC(=O)O)NC(=O)[C@H](CCSC)NC(=O)[C@H](C)NC(=O)[C@H](CCCNC(=N)N)NC(=O)[C@H](CO)NC(=O)[C@H](CCSC)NC(=O)[C@H](CC(=O)O)NC(=O)[C@H](CO)NC(=O)[C@@H](NC(=O)[C@H](Cc1ccccc1)NC(=O)[C@@H](NC(=O)CNC(=O)[C@H](CCC(N)=O)NC(=O)C(C)(C)NC(=O)[C@@H](N)Cc1c[nH]cn1)[C@@H](C)O)[C@@H](C)O)C(=O)N[C@@H](C)C(=O)N[C@H](C(=O)N[C@@H](CCCNC(=N)N)C(=O)N[C@@H](CC(C)C)C(=O)N[C@@H](Cc1ccccc1)C(=O)N[C@H](C(=O)N[C@@H](CC(=O)O)C(=O)N[C@@H](Cc1c[nH]c2ccccc12)C(=O)N[C@@H](CC(C)C)C(=O)N[C@H](C(=O)N[C@@H](CCC(=O)O)C(=O)NCC(=O)NCC(=O)N1CCC[C@H]1C(=O)N[C@@H](CO)C(=O)N[C@@H](CO)C(=O)NCC(=O)N[C@@H](C)C(=O)N1CCC[C@H]1C(=O)N1CCC[C@H]1C(=O)N1CCC[C@H]1C(=O)N[C@@H](CO)C(N)=O)[C@@H](C)CC)C(C)C)C(C)C` (H-H[Aib]QGTFTSDMSRAMEK([AEEA-AEEA-γGlu-C18 diacid])IAVRLFVDWLIEGGPSSGAPPPS-NH2): the pEC50 in test [1] is 10.72; in test [3], 9.21; in test [5], 9.08. In addition, the Activity in test [2] (filed as agonist) was 279%; in test [4], 15%; in test [6], 3%.
Take `CC[C@H](C)[C@H](NC(=O)[C@H](CCCCNC(=O)COCCOCCNC(=O)COCCOCCNC(=O)CC[C@H](NC(=O)CCCCCCCCCCCCCCCCCCC(=O)O)C(=O)O)NC(=O)[C@H](CCC(=O)O)NC(=O)[C@H](CC(C)C)NC(=O)[C@H](C)NC(=O)[C@H](CCCNC(=N)N)NC(=O)[C@H](CO)NC(=O)[C@H](CCSC)NC(=O)[C@H](CC(=O)O)NC(=O)[C@H](CO)NC(=O)[C@@H](NC(=O)[C@H](Cc1ccccc1)NC(=O)[C@@H](NC(=O)CNC(=O)[C@H](CCC(N)=O)NC(=O)C(C)(C)NC(=O)[C@@H](N)Cc1c[nH]cn1)[C@@H](C)O)[C@@H](C)O)C(=O)N[C@@H](C)C(=O)N[C@@H](C)C(=O)N[C@@H](CCCNC(=N)N)C(=O)N[C@@H](CC(C)C)C(=O)N[C@@H](Cc1ccccc1)C(=O)N[C@H](C(=O)N[C@@H](CC(=O)O)C(=O)N[C@@H](Cc1c[nH]c2ccccc12)C(=O)N[C@@H](CC(C)C)C(=O)N[C@H](C(=O)N[C@@H](CCC(=O)O)C(=O)NCC(=O)NCC(=O)N1CCC[C@H]1C(=O)N[C@@H](CO)C(=O)N[C@@H](CO)C(=O)NCC(=O)N[C@@H](C)C(=O)N1CCC[C@H]1C(=O)N1CCC[C@H]1C(=O)N1CCC[C@H]1C(=O)N[C@@H](CO)C(N)=O)[C@@H](C)CC)C(C)C` (H-H[Aib]QGTFTSDMSRALEK([AEEA-AEEA-γGlu-C20 diacid])IAARLFVDWLIEGGPSSGAPPPS-NH2): the pEC50 in test [1] was 10.74; in test [3] it was 9.28; in test [5], 9.02. Further, the Activity in test [2] (filed as agonist) was 294%; in test [4], 17%; in test [6], 3%.
In the case of `CSCC[C@H](NC(=O)[C@H](CC(=O)O)NC(=O)[C@H](CO)NC(=O)[C@@H](NC(=O)[C@H](Cc1ccccc1)NC(=O)[C@@H](NC(=O)CNC(=O)[C@H](CCC(N)=O)NC(=O)[C@H](CO)NC(=O)[C@@H](N)Cc1c[nH]cn1)[C@@H](C)O)[C@@H](C)O)C(=O)N[C@@H](CO)C(=O)N[C@@H](CCCCNC(=O)COCCOCCNC(=O)COCCOCCNC(=O)CC[C@H](NC(=O)CCCCCCCCCCCCCCCCC(=O)O)C(=O)O)C(=O)N[C@@H](Cc1ccc(O)cc1)C(=O)N[C@@H](CC(C)C)C(=O)N[C@@H](CC(=O)O)C(=O)N[C@@H](CO)C(=O)N[C@@H](CCCNC(=N)N)C(=O)N[C@@H](CCCNC(=N)N)C(=O)N[C@@H](C)C(=O)N[C@@H](CCC(N)=O)C(=O)N[C@@H](CC(=O)O)C(=O)N[C@@H](Cc1ccccc1)C(=O)N[C@H](C(=O)N[C@@H](CC(=O)O)C(=O)N[C@@H](Cc1c[nH]c2ccccc12)C(=O)N[C@@H](CC(C)C)C(=O)N[C@@H](CCCCN)C(=O)N[C@@H](CC(N)=O)C(=O)NCC(=O)NCC(=O)N1CCC[C@H]1C(=O)N[C@@H](CO)C(=O)N[C@@H](CO)C(=O)NCC(=O)N[C@@H](C)C(=O)N1CCC[C@H]1C(=O)N1CCC[C@H]1C(=O)N1CCC[C@H]1C(=O)N[C@@H](CO)C(N)=O)C(C)C` (H-HSQGTFTSDMSK([AEEA-AEEA-γGlu-C18 diacid])YLDSRRAQDFVDWLKNGGPSSGAPPPS-NH2), the figures for the pEC50 in test [1] and in test [3] were 10.28 and 8.85, respectively. Also, the Activity in test [2] (filed as agonist) is 102%; in test [4] it was 7%.
In the case of “H-HSQGTFTSDMSSYLDSRRAQDFVDWLIKGRPSSGAPPPS-NH2”, the values for the pEC50 in test [1] and in test [3] were 9.68 and 8.74, respectively. The Activity in test [2] came out at 25%; in test [4], 5%.

As a reminder, the pEC50 is the EC50 on a negative log10 scale, so that one unit is a factor of ten.
